These are literature values, as cited in patent US20020042084A1, “Detection of NAALADase inhibitors” (Boehringer Ingelheim Pharma KG, priority 2000, published 2002).

Residues, ends and D or L forms follow the SMILES beside them.

In this series the test system is NAALADase. The conditions noted are these: substrate specificity; Serval et al. 1992.
Consider `C[C@H](N)C(=O)N[C@@H](CCC(=O)O)C(=O)O` [Ala-Glu] (H-Ala-Glu-OH), for which the “hydrolysis by NAALADase” value is recorded as “not hydrolyzed”.

With `CC(=O)N[C@@H](CC(=O)N[C@@H](CCC(=O)O)C(=O)O)C(=O)O` [β-NAAG], the “hydrolysis by NAALADase” value is on record as “not hydrolyzed”.

In the case of `CC(=O)NC(CC(=O)O)C(=O)NC(CCC(=O)O)C(=O)O` [D-NAAG] (Ac-Asp-Glu-OH; configuration not given here), the “hydrolysis by NAALADase” value is recorded as “not hydrolyzed”.
